# Measurements from US12459974B2, “Bicyclic peptide ligands specific for Nectin-4” (priority 2018, dated 2025).
# Values joined by “and” are separate entries in the source; they are usually repeats but may differ in a detail not shown here. Identical values can stand only once. *1 amine or outer side, *2 acyl side, *3 side chain or, on linkers, in order; H or OH if unused. Where a SMILES comes first, the peptide text is derived from it. Bridges are numbered along the chain shown (N, C = ends). Roman numbers before positions name the chains, in order. [ ]: non-standard residue; d: D form. The star is where a group is joined. ξ: configuration not given here. TATA = O=C(CC[*:1])N1CN(C(=O)CC[*:2])CN(C(=O)CC[*:3])C1; Dolaproine = CO[C@@H]([C@@H]1CCCN1)[C@@H](C)C(=O)O; X1 = CC[C@H](C)C(C(CC(=O)[*:2])OC)N(C)[*:1]; 1Nal = N[C@@H](Cc1cccc2ccccc12)C(=O)O; X3 = O=C(CCCC(=O)[*:2])NCCC(=O)[*:1]; PABC = O=C(OCc1ccc(N[*:1])cc1)[*:2]; Hyp = O=C(O)[C@@H]1C[C@@H](O)CN1; hArg = N=C(N)NCCCC[C@H](N)C(=O)O; Cit = NC(=O)NCCC[C@H](N)C(=O)O; X2 = CC(N*)[C@@H](O)c1ccccc1; ξNMeV = CNC(C(=O)O)C(C)C; ξV = CC(C)C(N)C(=O)O; Sar = CNCC(=O)O
# Assays:
# NCI-H292 xenograft = assay: Example 1: in vivo efficacy in NCI-H292 xenograft (NSCLC model) in BALB/c nude mice; set-up: species or system Mus Musculus
# Protocol: The major endpoint was to see if the tumor growth could be delayed or mice could be cured. Tumor volume was measured three times weekly in two dimensions using a caliper, and the volume was expressed in mm^3 using the formula: V=0.5 a×b^2 where a and b are the long and short diameters of the tumor, respectively. The tumor size was then used for calculations of T/C value. The T/C value (in percent) is an indication of antitumor effectiveness; T and C are the mean volumes of the treated and control groups, respectively, on a given day. TGI was calculated for each group using the formula: TGI (%)=[1−(Ti−T0)/(Vi−V0)]×100; Ti is the average tumor volume of a treatment group on a given day, T0 is the average tumor volume of the treatment group on the day of treatment start, Vi is the average tumor volume of the vehicle control group on the same day with Ti, and V0 is the average tumor volume of the vehicle group on the day of treatment start.
# A one-way ANOVA was performed to compare tumor volume among groups, and when a significant F-statistics (a ratio of treatment variance to the error variance) was obtained, comparisons between groups were carried out with Games-Howell test. All data were analyzed using GraphPad Prism 5.0. P<0.05 was considered to be statistically significant.
# The NCI-H292 tumor cells will be maintained in medium supplemented with 10% heat inactivated fetal bovine serum at 37° C. in an atmosphere of 5% CO2 in air. The tumor cells will be routinely subcultured twice weekly. The cells growing in an exponential growth phase will be harvested and counted for tumor inoculation.
# Each mouse will be inoculated subcutaneously at the right flank with NCI-H292 tumor cells (10×10^6) in 0.2 ml of PBS for tumor development. The animals will be randomized and treatment will be started when the average tumor volume reaches approximately 158-406 mm^3.
# MDA-MB-468 xenograft = assay: Example 9.9: in vivo efficacy of BCY8245 alone or with BCY8234 in MDA-MB-468 xenograft (large tumors) in Balb/c nude mice; set-up: species or system Mus Musculus; conditions: for TGI / Tumor volume (TV): day 28; for Tumor volume: 1 mpk, qw
# [1] = 3 mpk biw iv, day 14 (Table 13)
# [2] = 3 mg/kg qw in combination with BCY8234 300 mg/kg qw
compound,measurement,setting,value
"CC[C@H](C)C(C(CC(=O)N1CCC[C@H]1[C@H](OC)[C@@H](C)C(=O)NC(C)[C@@H](O)c1ccccc1)OC)N(C)C(=O)[C@@H](NC(=O)C(C(C)C)N(C)C(=O)OCc1ccc(NC(=O)[C@H](CCCNC(N)=O)NC(=O)C(NC(=O)CCCC(=O)NCCC(=O)N(C)CC(=O)N(C)CC(=O)N(C)CC(=O)N(C)CC(=O)N(C)CC(=O)N(C)CC(=O)N(C)CC(=O)N(C)CC(=O)N(C)CC(=O)N(C)CC(=O)N[C@H]2CSCCC(=O)N3CN4CN(C3)C(=O)CCSC[C@H](NC(=O)[C@@H](CC(=O)O)NC(=O)[C@H](Cc3cccc5ccccc35)NC(=O)[C@@H]3CCCN3C2=O)C(=O)N[C@@H](CCSC)C(=O)N[C@@H](CCCCNC(=N)N)C(=O)N[C@@H](CC(=O)O)C(=O)N[C@@H](Cc2c[nH]c3ccccc23)C(=O)N[C@@H](CO)C(=O)N[C@@H]([C@@H](C)O)C(=O)N2CCC[C@H]2C(=O)N2C[C@H](O)C[C@H]2C(=O)N[C@@H](Cc2c[nH]c3ccccc23)C(=O)N[C@H](C(N)=O)CSCCC4=O)C(C)C)cc1)C(C)C (stereo partly drawn) [BCY8245, MMAE-PABC-Cit-Val-Glutaryl-BCY8234] (I: [Sar][Sar][Sar][Sar][Sar][Sar][Sar][Sar][Sar][Sar]CP[1Nal][dD]CM[hArg]DWSTP[Hyp]WC-NH2 / II: [ξV][Cit][PABC][ξNMeV]V[X1][Dolaproine]-X2; linker I:11-I:15-I:25 via TATA; linker I:N-II:N via X3)",antitumor activity (in words),NCI-H292 xenograft; 1 mg/kg qw,didn't produce significant antitumor activity
same,Tumor volume,"NCI-H292 xenograft; 1/3/5 mpk qw iv, day 0",404 ± 65 mm^3
same,Tumor volume,"NCI-H292 xenograft; 1/3/5 mpk qw iv, day 2",391 ± 42 mm^3
same,Tumor volume,"NCI-H292 xenograft; 1/3/5 mpk qw iv, day 4",542 ± 14 mm^3
same,Tumor volume,"NCI-H292 xenograft; 1/3/5 mpk qw iv, day 7",721 ± 136 mm^3
same,Tumor volume,"NCI-H292 xenograft; 1/3/5 mpk qw iv, day 9",762 ± 115 mm^3
same,Tumor volume,"NCI-H292 xenograft; 1/3/5 mpk qw iv, day 11",607 ± 95 mm^3
same,Tumor volume,"NCI-H292 xenograft; 1/3/5 mpk qw iv, day 14",614 ± 89 mm^3
same,Tumor volume,"NCI-H292 xenograft; 1/3/5 mpk qw iv, day 16",626 ± 93 mm^3
same,Tumor volume,"NCI-H292 xenograft; 1/3/5 mpk qw iv, day 18",611 ± 93 mm^3
same,T/C,"NCI-H292 xenograft; 1/3/5 mpk qw iv, day 21",30.4%
same,TGI,"NCI-H292 xenograft; 1/3/5 mpk qw iv, day 21",85.7%
same,Tumor volume,"NCI-H292 xenograft; 1/3/5 mpk qw iv, day 21",654 ± 152 mm^3
same,Tumor volume,"NCI-H292 xenograft; 1/3/5 mpk qw iv, day 23",732 ± 139 mm^3
same,Tumor volume,"NCI-H292 xenograft; 1/3/5 mpk qw iv, day 25",755 ± 132 mm^3
same,Tumor volume,"NCI-H292 xenograft; 1/3/5 mpk qw iv, day 28",713 ± 114 mm^3
same,Tumor volume,"NCI-H292 xenograft; 1/3/5 mpk qw iv, day 30",762 ± 165 mm^3
same,Tumor volume,"NCI-H292 xenograft; 1/3/5 mpk qw iv, day 32",968 ± 290 mm^3
same,Tumor volume,"NCI-H292 xenograft; 1/3/5 mpk qw iv, day 35",1119 ± 216 mm^3
same,Tumor volume,"NCI-H292 xenograft; 3 mpk biw iv, day 0 (Table 9)",162 ± 13 mm^3
same,Tumor volume,"NCI-H292 xenograft; 3 mpk biw iv, day 2 (Table 9)",243 ± 19 mm^3
same,Tumor volume,"NCI-H292 xenograft; 3 mpk biw iv, day 4 (Table 9)",211 ± 12 mm^3
same,Tumor volume,"NCI-H292 xenograft; 3 mpk biw iv, day 7 (Table 9)",101 ± 11 mm^3
same,Tumor volume,"NCI-H292 xenograft; 3 mpk biw iv, day 9 (Table 9)",100 ± 8 mm^3
same,Tumor volume,"NCI-H292 xenograft; 3 mpk biw iv, day 11 (Table 9)",87 ± 7 mm^3
same,Tumor volume,"NCI-H292 xenograft; 3 mpk biw iv, day 14 (Table 9)",65 mm^3 and 65 ± 3 mm^3
same,T/C,NCI-H292 xenograft; [1],6.9%
same,TGI,NCI-H292 xenograft; [1],112.2%
same,Tumor volume,"NCI-H292 xenograft; 3 mpk qw iv, day 0 (Table 9)",160 ± 5 mm^3
same,Tumor volume,"NCI-H292 xenograft; 3 mpk qw iv, day 2 (Table 9)",220 ± 11 mm^3
same,Tumor volume,"NCI-H292 xenograft; 3 mpk qw iv, day 4 (Table 9)",266 ± 15 mm^3
same,Tumor volume,"NCI-H292 xenograft; 3 mpk qw iv, day 7 (Table 9)",218 ± 23 mm^3
same,Tumor volume,"NCI-H292 xenograft; 3 mpk qw iv, day 9 (Table 9)",167 ± 10 mm^3
same,Tumor volume,"NCI-H292 xenograft; 3 mpk qw iv, day 11 (Table 9)",161 ± 36 mm^3
same,Tumor volume,"NCI-H292 xenograft; 3 mpk qw iv, day 14 (Table 9)",149 mm^3 and 149 ± 43 mm^3
same,T/C,"NCI-H292 xenograft; 3 mpk qw iv, day 14 (Table 13)",15.8%
same,TGI,"NCI-H292 xenograft; 3 mpk qw iv, day 14 (Table 13)",101.4%
same,Tumor volume,"NCI-H292 xenograft; 5 mpk qw iv, day 0 (Table 9)",160 ± 9 mm^3
same,Tumor volume,"NCI-H292 xenograft; 5 mpk qw iv, day 2 (Table 9)",176 ± 7 mm^3
same,Tumor volume,"NCI-H292 xenograft; 5 mpk qw iv, day 4 (Table 9)",191 ± 3 mm^3
same,Tumor volume,"NCI-H292 xenograft; 5 mpk qw iv, day 7 (Table 9)",105 ± 8 mm^3
same,Tumor volume,"NCI-H292 xenograft; 5 mpk qw iv, day 9 (Table 9)",82 ± 3 mm^3
same,Tumor volume,"NCI-H292 xenograft; 5 mpk qw iv, day 11 (Table 9)",91 ± 14 mm^3
same,Tumor volume,"NCI-H292 xenograft; 5 mpk qw iv, day 14 (Table 9)",83 mm^3 and 83 ± 8 mm^3
same,T/C,"NCI-H292 xenograft; 5 mpk qw iv, day 14 (Table 13)",8.8%
same,TGI,"NCI-H292 xenograft; 5 mpk qw iv, day 14 (Table 13)",109.8%
same,antitumor activity (in words),NCI-H292 xenograft; after increasing the dosage to 3 mg/kg from day 7,obvious antitumor activity
same,efficacy (in words),NCI-H292 xenograft; after increasing the dosage to 5 mg/kg on day 21,not further improved
same,anti-tumour activity (in words),"NCI-H292 xenograft; mouse, in vivo",good anti-tumour activity
same,TGI,MDA-MB-468 xenograft; 1 mg/kg qw,126.6%
same,Tumor volume (TV),MDA-MB-468 xenograft; 1 mg/kg qw,384 mm^3
same,TGI,MDA-MB-468 xenograft; [2],234.0%
same,Tumor volume (TV),MDA-MB-468 xenograft; [2],55 mm^3
same,tumor relapse (in words),"MDA-MB-468 xenograft; 3 mg/kg qw in combination with BCY8234 300 mg/kg qw, whole monitoring schedule",didn't showed any relapse
same,tumor relapse (in words),"MDA-MB-468 xenograft; 3 mg/kg qw, after ceasing the treatment",some tumor relapse
same,TGI,MDA-MB-468 xenograft; 3 mg/kg qw,234.6%
same,Tumor volume (TV),MDA-MB-468 xenograft; 3 mg/kg qw,50 mm^3
same,Tumor volume,MDA-MB-468 xenograft; day 0 after the start of treatment,466 mm^3
same,Tumor volume,MDA-MB-468 xenograft; day 2,480 mm^3
same,Tumor volume,MDA-MB-468 xenograft; day 5,453 mm^3
same,Tumor volume,MDA-MB-468 xenograft; day 7,474 mm^3
same,Tumor volume,MDA-MB-468 xenograft; day 9,446 mm^3
same,Tumor volume,MDA-MB-468 xenograft; day 12,461 mm^3
